# What was measured:
# Assay in all cases: isoTOP-ABPP mapping of AEA-DA-modified peptides in Neuro2a cells
# Format in all cases: cell-based
# [1] = biological target: T1, AEA-DA-modified peptides in Neuro2a cells (Mus musculus, UniProt O55234); conditions: AEA-DA-modified peptide PSMB5 O55234 141-151, SEQ ID NO 91; probe 100 μM, 12 replicates
# T1 construct: endogenous in cells; host or cells: Neuro2a
# Method: (§1) Experiments were performed as described above using the AEA-DA probe (100 μM) in 3.0 mL of DMEM (serum-free) and Neuro2A cells without (twelve replicates; ten biological; two technical). For the ligand competition study, cells were treated with the AEA-DA probe (50 μM) and DMSO or MJN228 (50 μM) treatment. Cells were harvested and processed as described above. Whole cell lysates (500 μL at 1.5 mg/mL) were processed for MS analysis using the previously described isoTOPABPP protocol (Speers and Cravatt, 2005). In brief, for global mapping of AEA-DA-modified peptides, proteomes were split into two fractions, which were subjected to click chemistry conditions with either light or heavy isotopically labeled TEV-tags. For the […] competition study, proteomes were subjected to click chemistry conditions with either light (DMSO) or heavy (MJN228-treated) TEV-tags. Light and heavy-tagged proteomes in each experiment were then combined, and, following enrichment of probe-labeled targets using streptavidin beads, proteins were digested on-bead with trypsin and remaining immobilized peptides released with a subsequent TEV protease digestion. The resulting probe-modified peptides were collected for MS analysis, which was performed as described above with differences in the salt bumps applied in the chromatographic gradients which were 0%, 30%, 60%, 90% and 100% NH4OAc (500 mM). The protein identification searches of the MS data were performed using the same software packages described above with the following changes applied to identify the peptides modified with AEA-DA and the cleaved TEV tag. All amino acids were considered as possible residues for modification. To facilitate the computational searches, sets of up to 3 amino acids were searched using ProLuCID and filtered with DTASelect as described above. The mass of the modification used to search for probe-modified peptides was +727.4745 m/z for the probe plus the light TEV-tag and +733.4831 m/z for the heavy counterpart. […] For global mapping experiments, AEA-DA-modified peptides were expected to show a ratio of “heavy” and “light” signals of ˜1.0 (0.5<ratio<2.0) and were required to have been detected in at least two of the twelve replicate experiments.
# (§2) In some embodiments, the ligands are tested for their interaction to NUCB1 in cells. […] MJN228 inhibited lipid probe binding to NUCB1 at concentrations as low as 10 μM, with near-maximal inhibition observed at ˜25 μM (FIG. 16A). […] The site of arachidonoyl probe (and MJN228) binding to NUCB1 was mapped in cells, which was accomplished by treating Neuro2A cells with the AEA-DA probe (50 μM) in the presence of DMSO or MJN228 (50 μM), followed by UV irradiation, CuAAC conjugation of AEA-DA-labeled proteins to isotopically light (DMSO-treated cells) and heavy (MJN228-treated cells) azide-biotin tags featuring a TEV protease-cleavable linker, and LCMS/MS analysis using a previously described platform, termed isoTOP-ABPP, for mapping probe-modified peptides in proteomes (Speers and Cravatt, 2005). A AEA-DA labeled peptide was identified for NUCB1 (aa 53-68) in DMSO-treated cells and the signals for this peptide were substantially (>5-fold) reduced in MJN228-treated cells (FIG. 15C). This AEA-DA labeling site was confirmed using recombinant, purified hNUCB1 and tandem MS analysis which narrowed down the site of probe modification to His67 (FIGS. 16B and 16C).
# [2] = biological target: T2, AEA-DA-modified peptides in Neuro2a cells (Mus musculus, UniProt P08113); conditions: AEA-DA-modified peptide HSP90B1 P08113 664-672, SEQ ID NO 51; probe 100 μM, 12 replicates
# T2 construct: endogenous in cells; host or cells: Neuro2a
# Method: as §1, §2
# [3] = biological target: T3, AEA-DA-modified peptides in Neuro2a cells (Mus musculus, UniProt P42125); conditions: AEA-DA-modified peptide ECI1 P42125 276-284, SEQ ID NO 34; probe 100 μM, 12 replicates
# T3 construct: endogenous in cells; host or cells: Neuro2a
# Method: as §1, §2
# [4] = biological target: T4, AEA-DA-modified peptides in Neuro2a cells (Mus musculus, UniProt P47867); conditions: AEA-DA-modified peptide SCG3 P47867 178-203, SEQ ID NO 97; probe 100 μM, 12 replicates
# T4 construct: endogenous in cells; host or cells: Neuro2a
# Method: as §1, §2
# [5] = biological target: T5, AEA-DA-modified peptides in Neuro2a cells (Mus musculus, UniProt P48678); conditions: AEA-DA-modified peptide LMNA P48678 281-297, SEQ ID NO 55; probe 100 μM, 12 replicates
# T5 construct: endogenous in cells; host or cells: Neuro2a
# Method: as §1, §2
# [6] = biological target: T6, AEA-DA-modified peptides in Neuro2a cells (Mus musculus, UniProt Q60716); conditions: AEA-DA-modified peptide P4HA2 Q60716 177-197, SEQ ID NO 76; probe 100 μM, 12 replicates
# T6 construct: endogenous in cells; host or cells: Neuro2a
# Method: as §1, §2
# [7] = biological target: T7, AEA-DA-modified peptides in Neuro2a cells (Mus musculus, UniProt Q8BGC4); conditions: AEA-DA-modified peptide ZADH2 Q8BGC4 86-115, SEQ ID NO 122; probe 100 μM, 12 replicates
# T7 construct: endogenous in cells; host or cells: Neuro2a
# Method: as §1, §2
# [8] = biological target: T8, AEA-DA-modified peptides in Neuro2a cells (Mus musculus, UniProt Q8BMG8); conditions: AEA-DA-modified peptide SLC25A32 Q8BMG8 115-146, SEQ ID NO 104; probe 100 μM, 12 replicates
# T8 construct: endogenous in cells; host or cells: Neuro2a
# Method: as §1, §2
# [9] = biological target: T9, AEA-DA-modified peptides in Neuro2a cells (Mus musculus, UniProt Q8C4B4); conditions: AEA-DA-modified peptide UNC119B Q8C4B4 142-151, SEQ ID NO 118; probe 100 μM, 12 replicates
# T9 construct: endogenous in cells; host or cells: Neuro2a
# Method: as §1, §2
# [10] = biological target: T10, AEA-DA-modified peptides in Neuro2a cells (Mus musculus, UniProt Q8R127); conditions: AEA-DA-modified peptide SCCPDH Q8R127 145-168, SEQ ID NO 96; probe 100 μM, 12 replicates
# T10 construct: endogenous in cells; host or cells: Neuro2a
# Method: as §1, §2
# [11] = biological target: T11, AEA-DA-modified peptides in Neuro2a cells (Mus musculus, UniProt Q9CZS1); conditions: AEA-DA-modified peptide ALDH1B1 Q9CZS1 119-147, SEQ ID NO 8; probe 100 μM, 12 replicates
# T11 construct: endogenous in cells; host or cells: Neuro2a
# Method: as §1, §2
# T9 sequence (Q8C4B4 whole entry): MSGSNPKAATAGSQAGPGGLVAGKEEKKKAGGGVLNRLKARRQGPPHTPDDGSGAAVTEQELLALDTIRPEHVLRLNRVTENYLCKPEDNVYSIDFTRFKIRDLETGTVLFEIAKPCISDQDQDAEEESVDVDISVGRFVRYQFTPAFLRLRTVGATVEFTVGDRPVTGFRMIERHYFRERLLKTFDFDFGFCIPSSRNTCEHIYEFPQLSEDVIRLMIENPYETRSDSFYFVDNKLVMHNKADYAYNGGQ
# T4 sequence (P47867 23-471): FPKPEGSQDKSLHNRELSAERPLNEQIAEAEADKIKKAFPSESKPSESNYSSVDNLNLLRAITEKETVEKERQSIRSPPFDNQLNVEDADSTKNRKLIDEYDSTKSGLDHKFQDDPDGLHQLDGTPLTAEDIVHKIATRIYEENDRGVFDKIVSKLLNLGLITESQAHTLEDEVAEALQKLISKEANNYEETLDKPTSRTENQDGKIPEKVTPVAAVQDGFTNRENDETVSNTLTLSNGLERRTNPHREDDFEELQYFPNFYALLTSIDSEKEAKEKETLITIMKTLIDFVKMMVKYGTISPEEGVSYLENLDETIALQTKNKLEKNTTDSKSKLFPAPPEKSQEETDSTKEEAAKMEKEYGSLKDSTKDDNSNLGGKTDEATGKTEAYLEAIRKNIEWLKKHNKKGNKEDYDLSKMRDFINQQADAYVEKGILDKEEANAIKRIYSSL
# T7 sequence (Q8BGC4 whole entry): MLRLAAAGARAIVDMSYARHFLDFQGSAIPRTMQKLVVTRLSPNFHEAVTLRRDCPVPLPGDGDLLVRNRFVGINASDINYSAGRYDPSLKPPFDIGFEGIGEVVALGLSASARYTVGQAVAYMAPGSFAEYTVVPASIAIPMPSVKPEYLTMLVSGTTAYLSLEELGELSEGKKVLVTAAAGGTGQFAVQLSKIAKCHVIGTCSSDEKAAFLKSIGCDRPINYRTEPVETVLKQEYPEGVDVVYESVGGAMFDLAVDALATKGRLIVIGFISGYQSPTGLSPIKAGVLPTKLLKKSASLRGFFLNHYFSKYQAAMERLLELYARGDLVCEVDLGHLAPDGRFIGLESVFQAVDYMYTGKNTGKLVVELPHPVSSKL
# T8 sequence (Q8BMG8 whole entry): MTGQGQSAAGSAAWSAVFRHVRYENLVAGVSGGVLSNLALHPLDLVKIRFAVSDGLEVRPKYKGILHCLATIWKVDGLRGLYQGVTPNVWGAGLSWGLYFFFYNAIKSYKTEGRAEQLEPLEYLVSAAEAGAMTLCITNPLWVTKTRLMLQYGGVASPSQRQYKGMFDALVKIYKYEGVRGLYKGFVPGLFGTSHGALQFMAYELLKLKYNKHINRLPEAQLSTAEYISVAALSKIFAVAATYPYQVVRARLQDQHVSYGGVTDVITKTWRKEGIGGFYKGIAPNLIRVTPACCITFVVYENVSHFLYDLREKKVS
# T6 sequence (Q60716 24-537): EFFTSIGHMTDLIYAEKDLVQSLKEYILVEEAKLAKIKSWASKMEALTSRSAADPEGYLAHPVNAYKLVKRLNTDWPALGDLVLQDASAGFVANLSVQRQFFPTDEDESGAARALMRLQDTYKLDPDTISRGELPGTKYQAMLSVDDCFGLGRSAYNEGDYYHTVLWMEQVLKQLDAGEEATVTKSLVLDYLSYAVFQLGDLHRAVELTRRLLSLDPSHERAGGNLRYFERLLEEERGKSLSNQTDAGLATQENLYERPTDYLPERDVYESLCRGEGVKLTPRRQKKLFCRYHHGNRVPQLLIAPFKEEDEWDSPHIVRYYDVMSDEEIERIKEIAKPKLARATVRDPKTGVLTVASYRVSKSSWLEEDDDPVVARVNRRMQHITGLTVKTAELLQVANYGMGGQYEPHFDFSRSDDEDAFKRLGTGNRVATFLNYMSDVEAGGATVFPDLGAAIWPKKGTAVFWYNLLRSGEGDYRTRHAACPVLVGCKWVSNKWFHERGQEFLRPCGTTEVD
# T2 sequence (P08113 22-802): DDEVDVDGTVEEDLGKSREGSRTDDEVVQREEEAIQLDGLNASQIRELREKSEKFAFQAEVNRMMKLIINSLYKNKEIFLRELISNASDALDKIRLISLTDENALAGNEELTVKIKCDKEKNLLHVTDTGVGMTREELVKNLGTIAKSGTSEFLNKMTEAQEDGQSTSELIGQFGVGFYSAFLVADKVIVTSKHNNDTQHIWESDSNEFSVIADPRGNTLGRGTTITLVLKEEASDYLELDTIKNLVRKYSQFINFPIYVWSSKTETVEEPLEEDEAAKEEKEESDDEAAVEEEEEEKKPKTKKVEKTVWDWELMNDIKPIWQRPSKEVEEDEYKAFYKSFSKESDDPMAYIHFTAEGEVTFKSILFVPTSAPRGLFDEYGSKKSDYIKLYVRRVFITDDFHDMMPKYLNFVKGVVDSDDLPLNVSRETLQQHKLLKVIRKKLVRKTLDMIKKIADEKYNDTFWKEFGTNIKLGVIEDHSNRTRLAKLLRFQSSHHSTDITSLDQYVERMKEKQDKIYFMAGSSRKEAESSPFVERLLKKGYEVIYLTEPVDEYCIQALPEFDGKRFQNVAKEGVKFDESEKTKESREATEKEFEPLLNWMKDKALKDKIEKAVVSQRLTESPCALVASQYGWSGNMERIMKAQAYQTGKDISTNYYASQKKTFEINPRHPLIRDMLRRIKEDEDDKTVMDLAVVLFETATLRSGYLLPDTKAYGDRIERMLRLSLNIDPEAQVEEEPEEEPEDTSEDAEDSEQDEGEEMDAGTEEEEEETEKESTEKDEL
# T10 sequence (Q8R127 whole entry): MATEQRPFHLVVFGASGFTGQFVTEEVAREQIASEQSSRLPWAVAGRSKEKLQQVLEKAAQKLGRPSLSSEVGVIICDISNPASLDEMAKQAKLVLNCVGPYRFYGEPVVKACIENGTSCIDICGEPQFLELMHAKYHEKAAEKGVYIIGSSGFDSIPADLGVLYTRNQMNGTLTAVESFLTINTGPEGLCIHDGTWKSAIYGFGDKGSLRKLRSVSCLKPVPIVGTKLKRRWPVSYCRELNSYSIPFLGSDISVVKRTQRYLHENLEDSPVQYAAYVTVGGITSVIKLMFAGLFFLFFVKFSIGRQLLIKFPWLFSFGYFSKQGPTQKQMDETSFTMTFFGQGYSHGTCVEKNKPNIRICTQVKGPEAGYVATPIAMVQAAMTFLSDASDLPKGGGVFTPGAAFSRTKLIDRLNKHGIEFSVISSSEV
# T1 sequence (O55234 60-264): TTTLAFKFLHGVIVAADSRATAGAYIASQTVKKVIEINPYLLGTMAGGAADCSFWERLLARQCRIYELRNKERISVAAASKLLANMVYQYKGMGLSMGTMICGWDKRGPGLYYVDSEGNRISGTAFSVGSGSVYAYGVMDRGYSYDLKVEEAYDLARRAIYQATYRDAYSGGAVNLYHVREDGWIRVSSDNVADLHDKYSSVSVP
# T3 sequence (P42125 29-289): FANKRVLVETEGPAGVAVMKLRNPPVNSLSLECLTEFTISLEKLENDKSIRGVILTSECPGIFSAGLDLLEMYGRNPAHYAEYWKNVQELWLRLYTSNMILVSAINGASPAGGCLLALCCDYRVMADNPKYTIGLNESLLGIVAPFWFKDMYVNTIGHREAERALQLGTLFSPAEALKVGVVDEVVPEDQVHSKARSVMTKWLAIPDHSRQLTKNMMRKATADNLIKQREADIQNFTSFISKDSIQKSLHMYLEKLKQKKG
# T5 sequence (P48678 whole entry): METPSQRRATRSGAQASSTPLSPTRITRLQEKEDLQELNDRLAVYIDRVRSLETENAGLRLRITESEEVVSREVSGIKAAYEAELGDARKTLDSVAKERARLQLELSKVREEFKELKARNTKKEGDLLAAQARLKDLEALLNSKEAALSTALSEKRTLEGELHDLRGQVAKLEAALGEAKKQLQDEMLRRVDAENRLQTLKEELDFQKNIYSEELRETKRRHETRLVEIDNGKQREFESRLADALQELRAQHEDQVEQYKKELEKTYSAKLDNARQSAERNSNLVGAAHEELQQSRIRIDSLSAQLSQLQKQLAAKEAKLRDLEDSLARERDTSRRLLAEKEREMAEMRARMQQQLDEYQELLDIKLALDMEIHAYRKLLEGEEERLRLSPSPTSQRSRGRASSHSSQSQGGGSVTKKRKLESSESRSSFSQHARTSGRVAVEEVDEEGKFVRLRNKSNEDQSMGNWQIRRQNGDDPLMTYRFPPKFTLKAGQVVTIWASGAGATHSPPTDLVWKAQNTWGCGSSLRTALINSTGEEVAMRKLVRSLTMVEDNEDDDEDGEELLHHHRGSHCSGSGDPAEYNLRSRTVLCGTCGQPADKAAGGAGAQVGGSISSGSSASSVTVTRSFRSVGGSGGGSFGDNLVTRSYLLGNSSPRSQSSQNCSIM
# T11 sequence (Q9CZS1 20-519): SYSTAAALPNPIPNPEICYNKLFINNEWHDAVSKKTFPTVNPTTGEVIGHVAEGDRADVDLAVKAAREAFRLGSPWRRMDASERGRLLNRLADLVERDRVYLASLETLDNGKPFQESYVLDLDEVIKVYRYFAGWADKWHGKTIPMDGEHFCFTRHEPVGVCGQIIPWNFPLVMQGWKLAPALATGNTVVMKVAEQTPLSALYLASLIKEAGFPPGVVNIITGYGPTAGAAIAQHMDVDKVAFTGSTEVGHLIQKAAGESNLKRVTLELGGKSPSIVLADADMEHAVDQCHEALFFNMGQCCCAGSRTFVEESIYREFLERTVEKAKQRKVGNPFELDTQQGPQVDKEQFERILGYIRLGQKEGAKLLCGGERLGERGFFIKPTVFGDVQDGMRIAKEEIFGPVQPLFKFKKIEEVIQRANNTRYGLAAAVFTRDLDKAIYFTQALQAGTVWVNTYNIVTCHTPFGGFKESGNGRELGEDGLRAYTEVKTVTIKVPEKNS
smiles,measurement,setting,value
"C#CCCCC1(CC/C=C\C/C=C\C/C=C\CCCC(=O)NCCO)N=N1 [AEA-DA, (5Z,8Z,11Z)-N-(2-hydroxyethyl)-14-(3-(pent-4-yn-1-yl)-3H-diazirin-3-yl)tetradeca-5,8,11-trienamide]",Times observed,[1],11
same,Times observed,[2],4
same,Times observed,[3],2
same,Times observed,[4],4
same,Times observed,[5],2
same,Times observed,[6],3
same,Times observed,[7],8
same,Times observed,[8],6
same,Times observed,[9],3
same,Times observed,[10],11
same,Times observed,[11],4
